Test results: ChEMBL document CHEMBL5291721, “A preclinical secondary pharmacology resource illuminates target-adverse drug reaction associations of marketed drugs” (Nat Commun, 2023)

Experiments:
Androgen receptor [1] = target: T1, Androgen receptor (Rattus norvegicus, UniProt P15207)
T1 sequence (P15207 whole entry): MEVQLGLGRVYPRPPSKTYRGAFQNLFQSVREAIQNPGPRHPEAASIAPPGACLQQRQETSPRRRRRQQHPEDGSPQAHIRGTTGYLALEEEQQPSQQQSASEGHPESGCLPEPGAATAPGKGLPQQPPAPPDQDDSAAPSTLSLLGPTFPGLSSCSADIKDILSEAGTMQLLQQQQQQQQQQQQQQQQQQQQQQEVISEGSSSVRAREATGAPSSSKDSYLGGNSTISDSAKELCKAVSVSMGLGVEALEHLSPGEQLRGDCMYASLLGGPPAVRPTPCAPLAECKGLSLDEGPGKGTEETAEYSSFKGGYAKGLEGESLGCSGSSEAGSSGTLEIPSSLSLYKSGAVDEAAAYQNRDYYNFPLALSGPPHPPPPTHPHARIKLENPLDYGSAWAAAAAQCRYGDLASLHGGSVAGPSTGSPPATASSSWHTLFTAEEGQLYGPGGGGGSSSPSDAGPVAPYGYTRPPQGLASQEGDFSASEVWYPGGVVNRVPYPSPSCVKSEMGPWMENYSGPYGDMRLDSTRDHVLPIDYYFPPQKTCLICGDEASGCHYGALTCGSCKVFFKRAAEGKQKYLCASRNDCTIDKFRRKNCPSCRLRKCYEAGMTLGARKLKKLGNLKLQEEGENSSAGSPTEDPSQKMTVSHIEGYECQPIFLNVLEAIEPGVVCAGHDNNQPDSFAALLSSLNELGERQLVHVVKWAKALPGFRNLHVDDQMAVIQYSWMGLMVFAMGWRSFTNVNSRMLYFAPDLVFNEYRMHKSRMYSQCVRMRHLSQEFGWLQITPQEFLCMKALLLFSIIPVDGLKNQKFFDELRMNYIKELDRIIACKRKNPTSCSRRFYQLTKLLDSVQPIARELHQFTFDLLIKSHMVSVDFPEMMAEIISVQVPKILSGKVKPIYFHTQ

[2] = target: T2, Corticotropin-releasing factor receptor 1 (Homo sapiens, UniProt P34998)
T2 sequence (P34998 whole entry): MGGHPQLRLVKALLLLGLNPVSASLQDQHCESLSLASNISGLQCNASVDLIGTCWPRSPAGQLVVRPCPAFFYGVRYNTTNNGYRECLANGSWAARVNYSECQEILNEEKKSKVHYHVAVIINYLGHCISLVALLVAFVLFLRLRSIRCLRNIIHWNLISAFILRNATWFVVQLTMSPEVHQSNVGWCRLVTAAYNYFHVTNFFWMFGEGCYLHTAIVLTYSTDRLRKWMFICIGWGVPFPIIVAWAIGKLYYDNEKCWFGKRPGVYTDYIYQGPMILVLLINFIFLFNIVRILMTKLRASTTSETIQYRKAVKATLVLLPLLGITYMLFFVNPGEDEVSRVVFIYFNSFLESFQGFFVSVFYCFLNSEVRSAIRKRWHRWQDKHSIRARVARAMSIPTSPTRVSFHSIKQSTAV

[3] = target: T3, Gastric inhibitory polypeptide receptor (Homo sapiens, UniProt P48546)
T3 sequence (P48546 whole entry): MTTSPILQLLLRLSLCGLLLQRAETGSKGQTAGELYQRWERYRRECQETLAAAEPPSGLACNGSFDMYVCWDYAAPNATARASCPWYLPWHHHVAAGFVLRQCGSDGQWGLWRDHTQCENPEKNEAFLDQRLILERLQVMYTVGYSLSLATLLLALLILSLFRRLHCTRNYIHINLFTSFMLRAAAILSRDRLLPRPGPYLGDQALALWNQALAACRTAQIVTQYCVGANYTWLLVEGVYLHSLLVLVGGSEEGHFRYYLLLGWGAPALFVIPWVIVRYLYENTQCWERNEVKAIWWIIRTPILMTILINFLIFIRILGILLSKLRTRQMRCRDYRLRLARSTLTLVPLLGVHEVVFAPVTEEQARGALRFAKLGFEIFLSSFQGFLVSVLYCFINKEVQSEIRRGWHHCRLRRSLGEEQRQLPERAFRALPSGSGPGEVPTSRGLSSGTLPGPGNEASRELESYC

[4] = target: 5-hydroxytryptamine receptor 2B (Homo sapiens, UniProt P41595)
[5] = target: T4, Alpha-1A adrenergic receptor (Homo sapiens, UniProt P35348)
T4 sequence (P35348 whole entry): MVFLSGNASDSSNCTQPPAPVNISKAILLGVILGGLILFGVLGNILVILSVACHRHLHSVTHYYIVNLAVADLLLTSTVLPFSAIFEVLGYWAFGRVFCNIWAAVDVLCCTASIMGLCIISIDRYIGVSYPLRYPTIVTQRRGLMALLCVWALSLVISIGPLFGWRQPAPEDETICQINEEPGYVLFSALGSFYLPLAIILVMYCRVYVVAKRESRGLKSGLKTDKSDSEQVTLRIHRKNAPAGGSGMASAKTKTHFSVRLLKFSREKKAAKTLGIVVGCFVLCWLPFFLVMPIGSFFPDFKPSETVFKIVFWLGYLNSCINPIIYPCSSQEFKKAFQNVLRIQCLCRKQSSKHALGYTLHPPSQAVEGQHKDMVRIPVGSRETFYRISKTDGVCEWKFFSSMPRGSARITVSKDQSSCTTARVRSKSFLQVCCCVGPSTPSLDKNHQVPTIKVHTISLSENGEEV

[6] = target: 5-hydroxytryptamine receptor 2A (Homo sapiens, UniProt P28223)
Androgen receptor [7] = target: T1, Androgen receptor; format: functional
Note: assay procedure not described here.

5-hydroxytryptamine receptor 2B, sequence (P41595 whole entry): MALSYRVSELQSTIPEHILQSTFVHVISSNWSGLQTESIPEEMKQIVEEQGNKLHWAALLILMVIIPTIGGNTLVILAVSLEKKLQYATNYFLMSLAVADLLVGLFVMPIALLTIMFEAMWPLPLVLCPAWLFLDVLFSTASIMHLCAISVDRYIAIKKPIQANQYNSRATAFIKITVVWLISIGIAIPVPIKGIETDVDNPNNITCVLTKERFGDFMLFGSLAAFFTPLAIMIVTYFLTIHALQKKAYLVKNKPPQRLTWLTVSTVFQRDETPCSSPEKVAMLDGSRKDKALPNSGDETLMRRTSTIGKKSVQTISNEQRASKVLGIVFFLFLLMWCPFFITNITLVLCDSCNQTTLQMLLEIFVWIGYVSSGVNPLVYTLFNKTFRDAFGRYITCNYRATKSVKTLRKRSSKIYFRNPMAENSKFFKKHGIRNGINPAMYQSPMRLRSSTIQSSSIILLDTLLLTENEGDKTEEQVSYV
5-hydroxytryptamine receptor 2A, sequence (P28223 whole entry): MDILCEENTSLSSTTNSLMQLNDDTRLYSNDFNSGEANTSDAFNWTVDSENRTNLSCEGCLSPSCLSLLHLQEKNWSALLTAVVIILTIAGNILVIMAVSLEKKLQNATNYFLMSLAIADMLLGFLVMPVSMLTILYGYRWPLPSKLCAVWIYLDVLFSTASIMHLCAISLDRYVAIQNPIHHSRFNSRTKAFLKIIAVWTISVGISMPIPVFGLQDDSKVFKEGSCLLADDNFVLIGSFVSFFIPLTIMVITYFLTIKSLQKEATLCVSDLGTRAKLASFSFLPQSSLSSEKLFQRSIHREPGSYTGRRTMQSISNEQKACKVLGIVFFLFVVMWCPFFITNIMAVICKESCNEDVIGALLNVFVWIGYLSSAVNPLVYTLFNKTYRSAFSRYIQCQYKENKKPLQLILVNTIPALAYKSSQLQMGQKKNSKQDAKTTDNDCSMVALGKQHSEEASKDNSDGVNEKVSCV

Compound	AC50 (Androgen receptor [1]) [µM]	AC50 [2] [µM]	AC50 [3] [µM]	AC50 [4] [µM]	AC50 [5] [µM]	AC50 [6] [µM]	AC50 (Androgen receptor [7]) [µM]
COc1ccc2cccc(CCNC(C)=O)c2c1 [AGOMELATINE]	> 30	> 30	> 30	0.879	> 10	–	–
NC(CO)C(=O)NNCc1ccc(O)c(O)c1O (configuration not stated) [BENSERAZIDE]	> 30	> 30	> 30	> 10	–	> 10	–
CN(C)C(=O)OC1N=C(c2ccccc2)c2cc(Cl)ccc2N(C)C1=O (configuration not stated) [CAMAZEPAM]	> 30	> 30	> 30	> 10	> 10	> 10	–
C#CC1(OC(N)=O)CCCCC1 [ETHINAMATE]	> 10	–	–	–	–	> 10	–
CCCCCN(C)CCC(O)(P(=O)(O)O)P(=O)(O)O [IBANDRONIC ACID]	> 30	> 30	> 30	> 10	> 10	> 10	> 30
CN1CC[C@]23CCCC[C@H]2[C@H]1Cc1ccc(O)cc13 [LEVORPHANOL]	> 10	–	–	–	–	–	–
CCN1CCC[C@H]1CNC(=O)c1cc(S(N)(=O)=O)ccc1OC [LEVOSULPIRIDE]	> 30	–	–	–	–	–	–
CC1=CC(=O)c2ccccc2C1=O [MENADIONE]	> 30	–	–	–	–	–	–
CN1CCC2=C(C1)C(c1ccccc1)c1ccccc12 (configuration not stated) [PHENINDAMINE]	> 30	–	–	–	–	–	–
C#CCN[C@@H]1CCc2ccccc21 [RASAGILINE]	> 30	–	–	–	–	–	–
Cc1c(C(=O)Nc2ccc(N3C[C@@H](C)O[C@@H](C)C3)nc2)cccc1-c1ccc(OC(F)(F)F)cc1 [SONIDEGIB]	> 30	> 30	> 30	> 10	> 10	> 10	–
CN[C@@H]1[C@H](O)[C@H](NC)[C@H]2O[C@@]3(O)C(=O)C[C@@H](C)O[C@H]3O[C@@H]2[C@H]1O [SPECTINOMYCIN]	> 10	–	–	–	–	–	–
